# Results published in ChEMBL document CHEMBL4017481, “Computer-aided discovery of two novel chalcone-like compounds active and selective against Leishmania infantum” (Bioorg Med Chem Lett, 2017).
# Assays:
# THP-1 = experiment: (§1) Cytotoxicity against human THP1 cells measured after 72 hrs by resazurin assay; format: cell-based; settings: thp-1, 72 h
# Leishmania infantum = experiment: microbe, parasite or virus in culture; format: functional; settings: MHOM/BR/1972/BH046, 72 h
# Description: Anti-leishmanial activity against Leishmania infantum MHOM/BR/1972/BH046 amastigotes infected in cells measured after 3 days by Draq5 staining based assay
# [1] = as §1; format: cell-based, THP-1; settings: THP-1 cells
# in vitro [2] = settings: human
# Description: Selectivity index, ratio of CC50 for human THP1 cells to EC50 for Leishmania infantum MHOM/BR/1972/BH046 amastigotes
# [3] = (§2) Cytotoxicity against African green monkey Vero cells measured after 72 hrs by resazurin assay; format: cell-based; settings: chlorocebus sabaeus, Vero cells
# in vitro [4] = settings: monkey, Vero cells
# Description: Selectivity index, ratio of CC50 for African green monkey Vero cells to EC50 for Leishmania infantum MHOM/BR/1972/BH046 amastigotes
# Vero = experiment: as §2; format: cell-based; settings: chlorocebus sabaeus, vero, 72 h
EC50 (Leishmania infantum) [µM],Compound,CC50 (THP-1) [µM],CC50 at 72 h [1] [µM],selectivity ratio (in vitro [2]; THP-1 cells),CC50 at 72 h [3] [µM],selectivity ratio (in vitro [4]),CC50 (Vero) [µM],selectivity ratio (in vitro [2])
> 50,CN(C)c1ccc(/C=C/C(=O)c2ccc(-c3ccccc3)cc2)cc1,> 50,–,–,–,–,–,–
> 50,COc1ccc(/C=C/C(=O)c2cccc(Br)c2)cc1,–,> 50,> 50,> 100,–,–,–
29.1,O=C(/C=C/c1ccc([N+](=O)[O-])o1)c1ccc(Br)cc1,–,13.4,0.46,> 100,3.4,–,–
31.4,O=C(/C=C/c1ccc([N+](=O)[O-])s1)c1ccc(-n2ccnc2)cc1,–,23.4,0.75,42.7,1.3,–,–
> 50,CSc1ccc(C(=O)/C=C/c2ccc([N+](=O)[O-])s2)cc1,–,8.56,–,> 100,–,–,–
> 50,O=C(/C=C/c1ccco1)c1ccc(N2CCCCC2)cc1,–,> 50,> 50,–,–,–,–
> 50,Cc1ccc(C(=O)/C=C/c2ccc([N+](=O)[O-])s2)cc1,–,13.5,–,–,–,–,–
45.5,CSc1ccc(C(=O)/C=C/c2ccco2)cc1,–,> 50,> 1.09,–,–,–,–
> 50,CC(C)(C)c1ccc(C(=O)/C=C/c2ccco2)cc1,–,> 50,–,–,–,–,–
> 50,O=C(/C=C/c1ccc([N+](=O)[O-])s1)c1ccc(N2CCOCC2)cc1,–,39.9,–,–,–,–,–
12.4,O=C(/C=C/c1ccc([N+](=O)[O-])o1)c1ccc(-n2ccnc2)cc1,–,22.2,1.79,> 100,8.1,–,–
30.8,O=C(/C=C/c1cccc([N+](=O)[O-])c1)c1ccc(N2CCCCC2)cc1,> 50,–,> 1.62,–,–,–,–
23.8,O=C(/C=C/c1ccc([N+](=O)[O-])o1)c1cccc(Br)c1,14.9,–,0.6 to 0.63,–,2.8 to 2.9,68.8,–
> 50,COc1ccc(/C=C/C(=O)c2ccc(-c3ccccc3)cc2)cc1,> 50,–,–,–,–,–,–
–,O=C(/C=C/c1ccc([N+](=O)[O-])o1)c1ccc(I)cc1,–,49.5,1.8 to 1.82,–,3.6,> 100,–
21.4,O=C(/C=C/c1ccc([N+](=O)[O-])o1)c1ccc(-c2ccccc2)cc1,–,50.4,2.35,> 100,4.7,–,–

EC50 (Leishmania infantum) [µM],Compound,CC50 (THP-1) [µM],CC50 at 72 h [1] [µM],selectivity ratio (in vitro [2]; THP-1 cells),CC50 at 72 h [3] [µM],selectivity ratio (in vitro [4]),CC50 (Vero) [µM],selectivity ratio (in vitro [2])
21.4,O=C(/C=C/c1ccc(Cl)s1)c1ccc(-n2ccnc2)cc1,–,> 50,> 2.33,–,–,–,–
> 50,O=C(/C=C/c1ccc([N+](=O)[O-])s1)c1ccc(C2CCCCC2)cc1,–,> 50,–,–,–,–,–
6.32,O=C(/C=C/c1ccc([N+](=O)[O-])o1)c1ccc(N2CCCCC2)cc1,> 50,–,> 7.91,–,55,349,–
> 50,CCCCc1ccc(C(=O)/C=C/c2ccc([N+](=O)[O-])o2)cc1,–,48.7,–,75.7,–,–,–
> 50,Cc1cccc(C(=O)/C=C/c2ccc([N+](=O)[O-])o2)c1,–,42.1,> 50,55.1,–,–,–
9.6,O=C(/C=C/c1ccc([N+](=O)[O-])o1)c1ccc(N2CCNCC2)cc1,> 50,–,> 5.2,–,10 to 10.4,> 100,–
> 50,O=C(/C=C/c1ccc([N+](=O)[O-])cc1)c1ccc(N2CCCCC2)cc1,> 50,–,–,–,–,–,–
1.92,C[C@@H]1[C@H](O)[C@@H](C)/C=C/C=C/C=C/C=C/C=C/C=C/C=C/[C@H](O[C@@H]2O[C@H](C)[C@@H](O)[C@H](N)[C@@H]2O)C[C@@H]2O[C@](O)(C[C@@H](O)C[C@@H](O)[C@H](O)CC[C@@H](O)C[C@@H](O)CC(=O)O[C@H]1C)C[C@H](O)[C@H]2C(=O)O [AMPHOTERICIN B],–,> 50,–,–,–,–,> 26
–,O=C(/C=C/c1ccc([N+](=O)[O-])o1)c1ccc(N2CCOCC2)cc1,–,49,–,> 100,–,–,–
> 50,CC(C)(C)c1ccc(C(=O)/C=C/c2ccc([N+](=O)[O-])o2)cc1,–,> 50,–,> 100,–,–,–
–,O=C(/C=C/c1ccc([N+](=O)[O-])o1)c1ccc(C2CCCCC2)cc1,–,3.1 to 31.1,2.8 to 2.84,–,9.1 to 10,> 100,–
31.1,CC(C)(C)c1ccc(C(=O)/C=C/c2ccc([N+](=O)[O-])s2)cc1,–,8.4 to 8.49,0.2 to 0.27,–,3 to 3.2,> 100,–
> 50,CCCCc1ccc(C(=O)/C=C/c2ccc([N+](=O)[O-])s2)cc1,–,17.1,–,81.3,–,–,–
> 50,COc1ccc(/C=C/C(=O)c2cccc(I)c2)cc1,> 50,–,–,–,2,> 100,–
11.8,O=C(/C=C/c1ccc([N+](=O)[O-])o1)c1ccc(N2CCCC2)cc1,–,> 50,> 4.26,–,–,–,–
37.7,Cc1ccccc1C(=O)/C=C/c1ccc([N+](=O)[O-])o1,–,27.9,0.74,41.3,1,–,–

Compound,EC50 (Leishmania infantum) [µM],CC50 (THP-1) [µM],CC50 at 72 h [1] [µM],selectivity ratio (in vitro [2]; THP-1 cells),CC50 at 72 h [3] [µM],selectivity ratio (in vitro [4]),CC50 (Vero) [µM],selectivity ratio (in vitro [2])
CSc1ccc(C(=O)/C=C/c2ccc([N+](=O)[O-])o2)cc1,9.31,–,13.1,1.4 to 1.41,–,4.3,40.7,–
